This is an account of results in the METLIN SMRT retention time set (Domingo-Almenara et al. 2019).

The nature of the series: gradient 5% acetonitrile 3 min, to 50% in 2 min, to 85% in 15 min, held 3 min, 100 µL/min. The conditions noted are these: column: Zorbax Extend-C18 2.1 x 50 mm; eluents: water / acetonitrile, 0.1% formic acid. The gist of the method: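 Over 3 months, pure standards in mixtures of ~100 molecules were run by HPLC coupled to a quadrupole time-of-flight mass spectrometer in positive and negative ionization mode. The column was a Zorbax Extend-C18 (2.1 × 50 mm, 1.8 μm) at 100 μL/min, eluted with water and acetonitrile each holding 0.1% formic acid, with 40 μL dead and 900 μL dwell volumes. Retention time was determined from adduct peaks chosen by software and checked manually.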
Turning to `CC(C)CCN1C(=O)C2CCCN2C(=O)c2ccccc21` (stereo not given), the RP-LC retention time amounted to 797 s.
For `Cc1ccc(S(=O)(=O)N2CCC(c3nc(-c4ccccn4)no3)CC2)cc1` the value was 916 s.
Compound `Nc1cc(C2CCN(S(=O)(=O)Cc3ccccc3)CC2)no1` came in with an RP-LC retention time of 732 s.
In the case of `COc1ccc(C2Cn3cnc(C(=O)N4CCC(C(=O)NC5CCCCCC5)CC4)c3CO2)cc1` (stereo not given) it was 797 s; in that of `O=C(c1ccsc1)N1CCN(c2cc(-c3ccc(Cl)cc3)[nH]n2)CC1`, 809 s.
Take `Cc1nc2nc(-c3ccc(C(C)(C)C)cc3)nn2c(C)c1CC(=O)N1CCc2ccccc2C1`: the RP-LC retention time was determined as 1120 s.
For `CCc1noc2nc(CCC(=O)NCCCN3CCN(C)CC3)nc(N3CCCCC3)c12` the value was 599 s; for `O=C(NCCN1CCN(C(=O)c2cccs2)CC1)Nc1ccc(C(F)(F)F)cc1`, 586 s.
In the case of `Cc1ccc(NC(=O)NC2CCN(c3ccc(F)cc3)C2=O)cc1F` (stereo not given) it was 886 s.
On to `Cc1ccc(C(=O)Nc2ccc(OCc3nnc(-c4ccccc4)o3)cc2)s1`, for which the RP-LC retention time was 988 s.
`CCCn1c(=O)c(N2CCC(NC(=O)NC3CCCCC3)CC2)nc2ccccc21`: the RP-LC retention time amounted to 953 s.
For `CN(CCNc1nc(-c2ccc(Cl)cc2)nc2ccccc12)C1CCCCC1` the value was 642 s.
For `COC(=O)c1cc(S(=O)(=O)N2CCCC2C(=O)Nc2ccccc2F)cn1C` (stereo not given) the value was 844 s; for `CCCN1C(=O)COc2ccc(-c3noc(CNS(=O)(=O)c4ccc(F)cc4)n3)cc21`, 884 s.
In the case of `CCN(Cc1ccccc1)C(=O)C1CCN(S(=O)(=O)c2ccc3c(c2)NC(=O)CO3)CC1`, the RP-LC retention time came to 852 s.
For `Cc1ccc(N(C)C(=O)CN(C)S(=O)(=O)c2ccc3c(c2)CCCC(=O)N3)cc1` the value was 725 s; for `O=C(NC1CCCC1)c1nnc(-c2ccc(S(=O)(=O)N3CCCCC3)cc2)o1`, 960 s; for `CC1(C)C(=O)NCCN1C(=O)CN1C(=O)c2ccccc2C1=O`, 594 s.
As to `C=CCN1CCc2c(cc(O)c(O)c2Cl)C(c2ccccc2)C1` (stereo not given), the RP-LC retention time came out at 666 s.
In the case of `Cc1ccc(C(=O)OCC(=O)c2ccc([N+](=O)[O-])cc2)o1` it was 688 s; in that of `C=CCNC(=O)N1CCCN(C2=NS(=O)(=O)C(c3ccc(C)cc3)=C2C)CC1`, 732 s.
On to `CN(C)C(=O)c1ccc2c(c1)nnn2CCNC(=O)Nc1cccc(Cl)c1`, for which the RP-LC retention time turned out to be 684 s.
In the case of `CCNC(=O)N1CCCN(S(C)(=O)=O)CC1` it was 566 s; in that of `Cc1cc(NC(=O)c2ccco2)c2cc(F)cc(F)c2n1`, 668 s.
For `COc1ccc(NC(=O)Cn2c(C)nc3c(sc4nc(-c5ccccc5)ccc43)c2=O)cc1` the value was 988 s; for `COc1cn2c(cc1=O)C(=O)N(CCNC(=O)c1ccc(Br)o1)CC2`, 556 s; for `CCCCNC(=O)C1(c2ccc(NC(C)=O)cc2)CCC1`, 704 s.
For `CCOc1ccc(CCNC(=O)c2nc(N3CCCC3)c3ccccc3n2)cc1OCC`, the RP-LC retention time turned out to be 732 s.
Consider `COc1cccc(CNC(=O)CN2C(=O)NC3(CCC(C(C)(C)C)CC3)C2=O)c1OC` (stereo not given), for which the RP-LC retention time is 943 s.
In the case of `O=C(Cn1cnc2ccccc2c1=O)N1CCOCC1` it was 590 s; in that of `Cc1ccc(S(=O)(=O)N2CCCC(Cn3cnc4cccnc43)C2)c(C)c1` (stereo not given), 821 s.
For `Cc1cc(C)cc(NC(=O)Cn2nc(C(=O)N3CCOCC3)c3ccccc32)c1` the value was 819 s.
On to `O=C(CN1N=C(C(=O)Nc2ccc(F)cc2)CCC1=O)Nc1cc(F)ccc1F`, for which the RP-LC retention time turned out to be 831 s.
As for `COc1ccccc1NC(=O)N1CCC2(CC1)NC(=O)c1cccc(Cl)c1N2`, the RP-LC retention time amounted to 754 s.
In the case of `Cn1nccc1-c1csc(S(=O)(=O)NC2CC2)c1` it was 713 s; in that of `COc1ccccc1-c1noc(C2CCCN2C(=O)Cc2c[nH]c3ccccc23)n1` (stereo not given), 838 s; in that of `O=C1[C@H]2CN(Cc3ccc(Cl)cc3)C[C@H]2C(=O)N1CCc1ccccc1`, 749 s.
In the case of `O=C(Cc1c[nH]c2ccccc12)N1CCN2CCS(=O)(=O)N(C3CC3)C(=O)C2C1` (stereo not given) it was 743 s.
In the case of `COc1ccc(Cl)cc1NC(=O)C1CCCN(c2nc3ccccc3nc2C(F)(F)F)C1` (stereo not given) it was 693 s; in that of `Cc1cccc(N2CCN(S(=O)(=O)c3cc(-c4cc(C(F)(F)F)[nH]n4)sc3C)CC2)c1C`, 1290 s; in that of `COC(=O)c1cc(S(=O)(=O)N2CCCC2C(=O)Nc2ccccc2)cn1C` (stereo not given), 818 s.
Consider `CCN(CC)CCNc1ncnc2onc(-c3cc(F)cc(F)c3)c12`, for which the RP-LC retention time came out at 651 s.
`Cc1cc(C)nc(N2CCC(NC(=O)c3cccc4nccnc34)CC2)n1` showed an RP-LC retention time of 650 s.
In the case of `CN(CCNC(=O)CCC(=O)N1CCc2c(c(C(=O)N3CCCC3)nn2C)C1)C1CCCCC1` it was 590 s; in that of `CCCN(Cc1ccc(OC)cc1)Cc1cc(=O)n2cc(C)ccc2n1`, 633 s; in that of `CC(C)n1cnc2cc(CNC(=O)Cc3ccsc3)ccc21`, 582 s.
In the case of `O=C(CSc1nc(-c2cccc([N+](=O)[O-])c2)cs1)NCc1ccc2c(c1)OCO2` it was 865 s; in that of `COc1ccc(CCNC(=O)CSc2c[nH]c3ccccc23)cc1OC`, 717 s; in that of `O=C(NC1CC1)c1cccc2c1CCN2C(=O)C1CC1`, 649 s.
The compound `Cn1cnc(S(=O)(=O)NCCN2C(=O)C3(CCCCC3)C2c2ccccc2)c1` (stereo not given) registered an RP-LC retention time of 722 s.
In the case of `O=C1/C(=C\c2cccs2)Oc2ccccc21` it was 958 s; in that of `CCCCc1ccc(Nc2nc(C(=O)OCC)nc3ccccc23)cc1`, 1110 s.
For `O=C(Nc1c(-c2ccc(F)cc2)nc2ccccn12)c1ccc(Br)cc1` the value was 716 s; for `CN(C)c1ccc(-c2nc3cnccn3c2Nc2ccc(F)cc2)cc1`, 787 s.
In the case of `Cc1ccc(NC(=O)NC2CCN(c3ccccc3)C2=O)cc1F` (stereo not given) it was 855 s.
The compound `CCCC(NC(=O)Cc1ccccc1F)C(=O)Nc1nc2ccccc2[nH]1` (stereo not given) showed an RP-LC retention time of 694 s.
In the case of `COc1ccc(-c2nnc(-c3cccc(S(=O)(=O)N4CCCC4)c3)o2)cc1` it was 963 s; in that of `O=C(C1CC(=O)N(c2n[nH]c3cccc(F)c23)C1)N1CCN(c2ccccc2)CC1` (stereo not given), 718 s.
In the case of `C[C@H]1CN(C(=O)Cc2ccccc2F)C[C@@H]1c1nc(-c2cccnc2)no1` it was 795 s.
Regarding `CCCNC(=O)c1cc2sc(CC)cc2n1C`, the RP-LC retention time is 951 s.
